Experimental data: patent US20250362286A1, “SCREENING MODELS AND METHODS OF CANCER TREATMENT” (The Regents of the University of California, priority 2022, published 2025)
Entries after “also recorded” stand apart in the source; their conditions may differ.

Legend:
[1] = cited from earlier work
[2] = tested on: MDAs; assay: CellTiter-Fluor metabolic activity assay; format: cell-based; conditions: 2D, 10-40 μM
Source text: FIG. 7C depicts the metabolic activity, cytotoxicity, and relative CD24 expression dose-response to ISX9.

[3] = tested on: PIM-025 PDOs; assay: western blot of E-Cadherin and Vimentin in PDOs; format: cell-based; conditions: 6 days
Source text: (§1) FIG. 8N depicts a western blot analysis of E-Cadherin and Vimentin in PIM-025 PDOs treated with vehicle or ISX9 for 6 days. FIG. 8O depicts a western blot analysis of E-Cadherin and Vimentin in PA-14-13 PDOs treated with vehicle or ISX9 for 6 days.

[4] = tested on: PA-14-13 PDOs; assay: western blot of E-Cadherin and Vimentin in PDOs; format: cell-based; conditions: 6 days
Source text: as §1

[5] = tested on: Notch pathway genes; assay: RT-qPCR gene expression analysis of Notch target genes in MDAs; format: cell-based; conditions: 24h in HD Col1, vs vehicle
Source text: Also assessed was how the Notch pathway responded to ISX9 treatment. […] FIG. 3A depicts the results of a RT-qPCR gene expression analysis of Notch target genes in vehicle and Isx9 treated MDAs.

[6] = tested on: MDA-MB-231; assay: B-Catenin localization to cell-cell junctions; format: cell-based; conditions: 48 hours, 2D-treated cells
[7] = tested on: PA-14-13; assay: western blot of acetylated H3/H4 in PDOs; format: cell-based; conditions: patient-derived organoid model
Source text: (§2) Also identified was the fact that a similar increase in acetylation was found in patient-derived organoid models. […] Acetylation and deactylation of histones H3 and H4 are typically orchestrated by Histone Acetyltransferases (HATs), including the several HAT subfamilies, as well as HDACs (see, e.g., Marmorstein, R. et al. Cold Spring Harb. Perspect. Biol. 6, a018762 (2014)). Not wishing to be bound by any particular theory, Isx9 may bind directly to HATs and/or HDACs in order to activate histone acetylation and drive induction of MET and/or CSC differentiation.

[8] = tested on: PIM025; assay: western blot of acetylated H3/H4 in PDOs; format: cell-based; conditions: patient-derived organoid model
Source text: as §2

[9] = tested on: PIM-025 PDOs; assay: sensitivity of PDOs to doxorubicin after pre-treatment; format: cell-based; conditions: pre-treatment 5d, then doxorubicin 3d
Method: (§3) To determine if these effects would translate to increased sensitivity to chemotherapy, both sets of PDOs were treated with ISX9 for 5d, followed by doxorubicin for 3d. […] FIG. 8P and FIG. 8Q depicts results of tests showing that PIM-025 PDOs and PA-14-13 PDOs, respectively, pre-treated with ISX9 acquire increased sensitivity to doxorubicin.

[10] = tested on: PA-14-13 PDOs; assay: as above; format: cell-based; conditions: pre-treatment 5d, then doxorubicin 3d
Method: as §3

[11] = tested on: BT-549; assay: CD24 mRNA expression in 2D for 48h; format: cell-based
Method: (§4) FIG. 3H depicts relative CD24 mRNA expression. CD24 expression was an early indicator of response to ISX9 in 2D across several TNBC cell lines. Treatment screening of several different TNBC cell lines with ISX9 in 2D for 48h yielded four responders, as determined by CD24 mRNA expression (FIG. 3H).

[12] = tested on: MDA-MB-436; assay: CD24 mRNA expression in 2D for 48h; format: cell-based
Method: as §4

[13] = tested on: MDA-MB-468; assay: CD24 mRNA expression in 2D for 48h; format: cell-based
Method: as §4

[14] = tested on: SUM149; assay: CD24 mRNA expression in 2D for 48h; format: cell-based
Method: as §4

[15] = tested on: MDAs; assay: western blot of EMT markers E-cadherin and Vimentin; format: cell-based
Source text: Given the strong phenotypic changes induced by ISX9 in HD Col1 (FIG. 2), this example also assessed the differentiation activity of ISX9 by characterizing Epithelial-to-Mesenchymal (EMT) status using western blot (WB) analysis of E-cadherin and vimentin levels. […] FIG. 3D depicts WB of EMT markers E-cadherin and Vimentin in cancer cell lines treated with vehicle or ISX9.
To understand whether ISX9 treatment could induce Mesenchymal-to-Epithelial Transition (MET), western blotting (WB) was performed for the epithelial marker E-Cadherin (CDH1) and the Mesenchymal marker Vimentin (Vim) on 2D and HD Collagen-treated tumor cells (FIG. 4D). FIG. 4D depicts a western blot analysis of EMT markers E-cadherin and Vimentin in MDAs treated with vehicle or ISX9 for 7 days in 2D TC or HD Col1.

[16] = tested on: MDA-MB-231 cells; assay: western blot of acetylation of histones H3 and H4; format: cell-based; conditions: 2D- and 3D-treated cells, 24 hours
Source text: as §2

[17] = tested on: MDAs and MDA-231-BrM2 (TNBC), Py8119 (Breast Cancer), HT-1080 (fibrosarcoma), Sk-HEP-1 (liver cancer), and R40P (PDAC) cells; assay: phenotype screen for anti-invasive activity in the HD Col1 model system; format: cell-based; conditions: HD Col1, 7 days of culture; all six cell lines
Source text: In this example, it was explored whether isoxazole derivatives could similarly induce differentiation of CSCs occupying the clinically relevant notch-activated state conferred by the HD Col1 model system of Example 1 (Table 1, FIG. 1). […] FIG. 2 includes brightfield microscopy images of cancer cell lines at 7 days of culture in HD Col1 treated with vehicle or ISX9 (scale bar=250 μm).

## O=C(NC1CC1)c1cc(-c2cccs2)on1 [ISX9, Isoxazole 9]
[1]; ip injection
  detection in heart tissue: detected
[1]; single bolus ip injection
  terminal half-life in plasma: < 15 min
[2]
  metabolic activity: decrease in metabolic activity
[3]
  Vimentin expression (WB): no observed differences to Vimentin expression
[4]
  Vimentin expression (WB): no observed differences to Vimentin expression
[5]
  expression of Notch pathway genes: significantly increased
[6]
  B-Catenin localization to cell-cell junctions: significant increase in B-Catenin localization
[7]
  acetylated H3/H4 expression: large increase in acetylated H3/H4 expression
[8]
  acetylated H3/H4 expression: slight increase in acetylated H3/H4 expression
[9]
  increase in sensitivity to doxorubicin: 2.9 fold
[10]
  increase in sensitivity to doxorubicin: 85.8 fold
[11]
  CD24 mRNA expression (FC): ~12.6
[12]
  CD24 mRNA expression (FC): ~7.1
[13]
  CD24 mRNA expression (FC): ~0.6
[14]
  CD24 mRNA expression (FC): ~2.7
[15]; 2D-treated cells, 7 days
  effect on MET markers E-Cadherin and Vimentin (WB): no effect on either MET marker
[15]; 7 days in HD Col1
  E-cadherin expression (WB): increased E-cadherin expression; also recorded: increase in E-Cadherin
  Vimentin expression (WB): reduced Vimentin expression; also recorded: decrease in Vimentin
[16]
  acetylation of histones H3 and H4: significant increase in acetylation of histones H3 and H4
[17]
  invasive capability: significant abrogation of the invasive capability
